The values below come from patent publication US12448352B2, “Beta adrenergic agonist and methods of using the same” (Curasen Therapeutics, Inc., priority 2019, dated 2025).

Data set [1] is described as follows: Plasma protein binding, equilibrium dialysis (human). It is filed as in vitro ADME. Here is the method:
Preparation of 100 mM sodium phosphate and 150 mM NaCl buffer (PBS). A basic solution was prepared by dissolving 14.2 g/L Na2HPO4 and 8.77 g/L NaCl in deionized water and the solution could be stored at 4° C. for up to 7 days. An acidic solution was prepared by dissolving 12.0 g/L NaH2PO4 and 8.77 g/L NaCl in deionized water and the solution could be stored at 4° C. for up to 7 days. The basic solution was titrated with the acidic solution to pH 7.4 and store at 4° C. for up to 7 days. pH was checked on the day of experiment and was adjusted if outside specification of 7.4±0.1.
Thawing of the frozen plasma (stored at −80° C.). Frozen plasma was thawed immediately at room temperature. The plasma was centrifuged at 3,220 g for 10 minutes to remove clots and supernatant was collected into a fresh tube. The pH of the plasma was checked and recorded. Note: a). Only use plasma that has been thawed no more than twice since arrival. b). Only use plasma within the range of pH 7 to pH 8.
Preparation of working solutions. The working solutions of test compound and control compound ketoconazole were prepared in DMSO at the concentration of 200 μM. And then 3 μL of working solutions was removed to mix with 597 μL of rat plasma to achieve a final concentration of 1 μM (0.5% DMSO). Plasma samples were vortexed thoroughly.
Preparation of dialysis membranes. […]
(In general: Equilibrium dialysis compares concentrations on both sides of a semipermeable membrane.)

Data set [2] in a line: Mouse pharmacokinetic study (plasma). It counts as in vivo, male C57BL/6J mice. The note with it: PO 5 mg/kg. The method, then:
(§1) The rat pharmacokinetics studies of exemplary compounds 03-3, 03-5, and 03-115 were conducted with male SD rats. These rats were typically about 6-8 weeks old, weighing 200 g to 300 g. Animals were fasted overnight and free access to food 4 hours after dosing. A required volume of vehicle was added to reach the target concentration of the test article and vehicle component to prepare for the dosing. The dosing vehicle was PEG400 or 30% PEG400 in saline for IV, or 0.5% methylcellulose in water for PO. For IV dosing, the animals were administered intravenously via tail vein. For PO dosing, the animals were administered via oral gavage. After dosing, blood sample was collected (˜0.2 mL per time point) through jugular vein or heart puncture. Blood of each sample was transferred into plastic micro centrifuge tubes containing EDTA-K2. Collection tubes with blood samples and anticoagulant were inverted several times for proper mixing of the tube contents and then placed on wet ice. The blood samples were centrifuged at 2000 g for 5 minutes at 4° C. to obtain plasma which was stored in a freezer at −75±15° C. prior to analysis. Samples were analyzed using LC-MS/MS. WinNonlin were used for pharmacokinetic calculations.
Mouse pharmacokinetics studies of exemplar compounds 03-3 and 03-5 were conducted substantially similarly to the rat pharmacokinetic studies, instead using male C57BL/6J mice. These mice were typically about 6-8 weeks old, weighing 20 g to 30 g. Animals were free access to food before dosing. Sample amount was ˜0.03 mL per time point and sample site was dorsal metatarsal or heart puncture.

Data set [3] in a line: Mouse CNS exposure (plasma, CSF, brain). It is filed as in vivo, male C57BL/6J mice. The note with it: SC 1 mg/kg, 60 min. Here is the method:
as §1, with “These” for “The rat pharmacokinetics studies of exemplary compounds 03-3, 03-5, and 03-115 were conducted with male SD rats. These”
For CSF sampling, after anesthesia, the foramen magnum was exposed, and a syringe was used with a venoclysis needle to sample the CSF. The CSF samples were stored in polypropylene tubes, then stored in a freezer at −75±15° C. prior to analysis.
For brain sampling, the rats were fully exsanguinated by using a risen of carbon dioxide prior to brain collection. Brain samples were then collected at adopted time point, quick frozen and kept at −75±15° C. All brain samples were weighted and homogenated with PBS by brain weight (g) to PBS volume (mL) ratio 1:3 before analysis. The actual concentration is the detected value multiplied by the dilution factor.
These mice were typically about 6-8 weeks old, weighing 20 g to 30 g. Animals were free access to food before dosing. Sample amount was ˜0.03 mL per time point and sample site was dorsal metatarsal or heart puncture.

For orientation: Cmax means the maximum level reached in the sampled fluid or tissue. One may read the Tmax as the time from dosing to the highest level. Regarding `Cc1ncccc1[C@@H](O)CNC(C)(C)C` [Compound 03-115], in data set [1], the “PPB (human), Percent of Unbound Fractions” value is reported as 100%. In addition, in data set [2], the AUCInf came to 3018 ng·h/mL, the Cmax worked out at 1751 ng/mL, the MRTInf_obs is on record as 1.8 h and the Tmax amounted to 0.5 h. Also, in data set [3], the “Concentration, Brain” value is listed as 280 ng/g; the “Concentration, CSF” value worked out at 157 ng/mL; the “Concentration, Plasma” value stood at 270 ng/mL.
